Results on one compound are retold here after doi:10.1101/2020.03.02.973636v3 (biorxiv, 2020).

Each structure is given as a SMILES string.

The target in assay [1] is T1, HDAC2 (Homo sapiens, UniProt Q92769). Put plainly: biolayer interferometry, […] global fit. It counts as binding. In general terms: Biolayer interferometry detects binding as a change in optical thickness at a sensor tip.
Assay [2] addresses T2, HDAC8 (Homo sapiens, UniProt Q9BY41).
T2 sequence (Q9BY41 1-377): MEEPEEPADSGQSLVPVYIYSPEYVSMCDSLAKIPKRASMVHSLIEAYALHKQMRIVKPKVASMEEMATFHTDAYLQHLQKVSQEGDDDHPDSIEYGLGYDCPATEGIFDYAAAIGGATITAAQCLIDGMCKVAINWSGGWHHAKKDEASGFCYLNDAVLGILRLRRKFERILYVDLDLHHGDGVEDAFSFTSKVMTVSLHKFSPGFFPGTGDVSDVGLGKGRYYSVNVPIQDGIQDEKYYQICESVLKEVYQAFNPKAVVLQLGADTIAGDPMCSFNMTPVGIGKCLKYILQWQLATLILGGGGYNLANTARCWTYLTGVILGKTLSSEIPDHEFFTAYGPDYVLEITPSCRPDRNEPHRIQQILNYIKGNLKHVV
Put plainly: RapidFire mass spectrometry deacetylase assay. In kind it is biochemical.

The target in assay [3] is T2, HDAC8. Description: biolayer interferometry, […] global fit. In kind it is binding.
Assay [4] deals with T3, HDAC1 (Homo sapiens, UniProt Q13547). Put plainly: biolayer interferometry, […] global fit. In kind it is binding.
Assay [5] deals with T3, HDAC1. Put plainly: biochemical. The note with it: read-out: ka (1/Ms).
The target in assay [6] is T1, HDAC2. Put plainly: biochemical. The note with it: read-out: ka (1/Ms).
For assay [7], the target named is T2, HDAC8. Description: biochemical. The conditions noted are these: read-out: ka (1/Ms).
Assay [8] has as its target T3, HDAC1. Description: biochemical. The note with it: read-out: kdis (1/s).
In assay [9] the target is T2, HDAC8. Description: biochemical. The conditions noted are these: read-out: kdis (1/s).
Assay [10] deals with T1, HDAC2. Description: biochemical. The conditions noted are these: read-out: kdis (1/s).
The target in assay [11] is T3, HDAC1. Description: biochemical.

As usually defined, the Kd is the free concentration of one partner at which half of the binding sites on the other are occupied at equilibrium, for simple one-to-one binding. A high value points to lower affinity. In general, EC50 refers to the concentration at which the effect is half-maximal.

T3 sequence (Q13547 whole entry): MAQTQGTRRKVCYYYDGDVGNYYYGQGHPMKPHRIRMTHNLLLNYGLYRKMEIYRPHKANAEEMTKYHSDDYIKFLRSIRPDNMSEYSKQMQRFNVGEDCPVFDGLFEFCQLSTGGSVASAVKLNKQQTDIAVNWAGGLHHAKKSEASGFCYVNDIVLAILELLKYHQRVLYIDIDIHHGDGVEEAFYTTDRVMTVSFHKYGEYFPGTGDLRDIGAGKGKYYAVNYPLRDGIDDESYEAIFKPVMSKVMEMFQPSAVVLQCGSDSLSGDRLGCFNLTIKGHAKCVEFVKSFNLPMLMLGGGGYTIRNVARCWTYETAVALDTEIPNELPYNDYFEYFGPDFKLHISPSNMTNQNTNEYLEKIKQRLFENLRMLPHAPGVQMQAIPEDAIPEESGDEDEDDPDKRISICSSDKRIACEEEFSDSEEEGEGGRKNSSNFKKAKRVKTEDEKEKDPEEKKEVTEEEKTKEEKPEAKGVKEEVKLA
T1 sequence (Q92769 whole entry): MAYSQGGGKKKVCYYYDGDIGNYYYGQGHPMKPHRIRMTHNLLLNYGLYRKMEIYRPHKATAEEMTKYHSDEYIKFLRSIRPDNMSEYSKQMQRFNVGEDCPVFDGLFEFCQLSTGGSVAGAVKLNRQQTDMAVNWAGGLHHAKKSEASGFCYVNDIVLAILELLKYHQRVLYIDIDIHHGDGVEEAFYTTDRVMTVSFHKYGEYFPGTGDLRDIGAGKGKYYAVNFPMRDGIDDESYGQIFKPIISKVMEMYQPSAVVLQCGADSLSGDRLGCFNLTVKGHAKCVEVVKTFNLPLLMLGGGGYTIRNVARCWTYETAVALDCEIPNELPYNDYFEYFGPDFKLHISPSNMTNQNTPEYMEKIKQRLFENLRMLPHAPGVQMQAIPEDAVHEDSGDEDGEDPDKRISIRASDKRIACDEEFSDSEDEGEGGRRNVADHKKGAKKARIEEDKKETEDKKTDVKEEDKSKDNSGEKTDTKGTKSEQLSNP

On to `O=C(c1cc(O)c(O)c(O)c1)c1ccc(O)c(O)c1O` [Exifone, 2,3,3’,4,4’,5’-hexahydroxybenzophenone], for which the Kd on HDAC2 [1] came to 142.8 ± 1 nM; on HDAC8 [3] it was 257.9 ± 1.7 nM; at HDAC1 [4] it was 94.9 ± 0.8 nM. The figures for the EC50 on HDAC8 [2] and at HDAC1 [11] were 270 nM and 160 nM, respectively. The kon worked out at 15500 M⁻¹ s⁻¹ on HDAC1 [5], 8740 M⁻¹ s⁻¹ at HDAC2 [6] and 5050 M⁻¹ s⁻¹ at HDAC8 [7]. The koff was 0.00134 s⁻¹ at HDAC1 [8], 0.0013 s⁻¹ on HDAC8 [9] and 0.00125 s⁻¹ at HDAC2 [10].
